In patent US8530177B2, “Chloral hydrate detection” (Randox Laboratories Limited, priority 2010, dated 2013):
Converted amounts (≈) assume the structure as drawn.

Assays:
[1] = average person, drinking water guidance; cited from earlier work
[2] = twenty four hours following a single oral dose; cited from earlier work
[3] = tested on: antibody of the invention (polyclonal IgG raised against Immunogen II, TCG-BTG); assay: Competitive ELISA for TCG: cross-reactivity and specificity of the antibody; format: binding, sheep; conditions: for IC50 = standard concentration which produces 50% B/B0: hapten A-HRP conjugate
Method: TCG was coupled to bovine thyroglobulin (Immunogen II, Example 5). The resulting immunogen was administered to adult sheep on a monthly basis to provide target-specific polyclonal antisera. IgG was extracted from the antisera via caprylic acid/ammonium sulphate precipitation of immunoglobulin. Microtitre plates (Thermo Scientific, 468667) were coated with antibody (125 μl) in coating buffer (10 mM Tris pH 8.5) at 37° C. for 2 hours. Antibody was coated at 1.25 μg/ml. The plates were then washed. 50 μl of sample/standard (trichloroethyl glucuronide, Randox LK811; chloral hydrate, Sigma C8383-100 g; trichloroacetic acid, Fisher Scientific T/3000/50; ETG, Randox LK589) was added to the appropriate wells in triplicate, followed by 75 μl of hapten A-HRP conjugate at ¼K and incubated at 25° C. for 1 hour. The plates were then washed and 125 μl of TMB (Randox, 4380-15) was added to each well and left at room temperature for 20 mins in the dark. The reaction was stopped using 125 μl of 0.2M sulphuric acid. The absorbances were read at 450 nm with an ELISA microplate reader (BIO-TEK Instruments, Elx800) and the means calculated. Antibody specificity and sensitivity were then determined.
Competitive ELISA results in the Table 1 below highlight the specificity of the antibody of the invention towards TCG.

[4] = metabolite of chloral hydrate; cited from earlier work

In the case of `OC(O)C(Cl)(Cl)Cl` [Chloral Hydrate, 2,2,2-trichloroethanediol], the “Tolerable Daily Intake (TDI)” value [1] is listed as 0.3 mg/day, the “excreted in the urine as TCG” value [2] is listed as about 28% and the “excreted in the urine as trichloroethanol” value [2] is listed as “approximately 0.7%”.

With `CCO[C@@H]1O[C@H](C(=O)O)[C@@H](O)[C@H](O)[C@H]1O` [EtG, ethyl glucuronide] the “% CR = percentage cross-reactivity based on 100% specificity to TCG” value (“% CR = percentage cross-reactivity based” below) ([3]; competitive ELISA) was <<0.69%, the “cross-reactivity with the antibody of the invention (in words)” value ([3]; competitive ELISA, Table 1) was “does not cross-react” and the “IC50 = standard concentration which produces 50% B/B0” value ([3]; competitive ELISA) was >>2000 ng/ml. The “% B/B0” value ([3]; standard 31.25 ng/ml) was 86.7%, the “A450 (absorbance at 450 nm)” value ([3]; standard 31.25 ng/ml) was 1.183 and the “% B/B0” value ([3]; standard 62.5 ng/ml) was 83.9%. The “A450 (absorbance at 450 nm)” value ([3]; standard 62.5 ng/ml) was 1.144, the “% B/B0” value ([3]; standard 125 ng/ml) was 84.8% and the “A450 (absorbance at 450 nm)” value ([3]; standard 125 ng/ml) was 1.157. The “% B/B0” value ([3]; standard 250 ng/ml) was 82.8%, the “A450 (absorbance at 450 nm)” value ([3]; standard 250 ng/ml) was 1.130 and the “% B/B0” value ([3]; standard 500 ng/ml) was 80.2%. For the same compound, the “A450 (absorbance at 450 nm)” value ([3]; standard 500 ng/ml) was 1.094, the “% B/B0” value ([3]; standard 1000 ng/ml) was 75.6% and the “A450 (absorbance at 450 nm)” value ([3]; standard 1000 ng/ml) was 1.031. For the same compound, the “% B/B0” value ([3]; standard 2000 ng/ml) was 69.6% and the “A450 (absorbance at 450 nm)” value ([3]; standard 2000 ng/ml) was 0.950.

In the case of `O=C(O)[C@H]1O[C@@H](OCC(Cl)(Cl)Cl)[C@H](O)[C@@H](O)[C@@H]1O` [TCG, trichloroethanol glucuronide], the “% CR = percentage cross-reactivity based” value ([3]; competitive ELISA) is reported as 100%, the “IC50 = standard concentration which produces 50% B/B0” value ([3]; competitive ELISA) is reported as 13.724 ng/mL (≈ 0.0422 µM) and the “% B/B0” value ([3]; standard 1.25 ng/ml) is reported as 86.6%. For the same compound, the “A450 (absorbance at 450 nm)” value ([3]; standard 1.25 ng/ml) was 1.313, the “% B/B0” value ([3]; standard 2.5 ng/ml) was 81.0% and the “A450 (absorbance at 450 nm)” value ([3]; standard 2.5 ng/ml) was 1.228. For the same compound, the “% B/B0” value ([3]; standard 5 ng/ml) was 70.0%, the “A450 (absorbance at 450 nm)” value ([3]; standard 5 ng/ml) was 1.061 and the “% B/B0” value ([3]; standard 10 ng/ml) was 57.5%. The “A450 (absorbance at 450 nm)” value ([3]; standard 10 ng/ml) was 0.872, the “% B/B0” value ([3]; standard 20 ng/ml) was 42.3% and the “A450 (absorbance at 450 nm)” value ([3]; standard 20 ng/ml) was 0.641. The “% B/B0” value ([3]; standard 40 ng/ml) was 30.7%, the “A450 (absorbance at 450 nm)” value ([3]; standard 40 ng/ml) was 0.465 and the “% B/B0” value ([3]; standard 80 ng/ml) was 24.6%. The “A450 (absorbance at 450 nm)” value ([3]; standard 80 ng/ml) was 0.373.

In the case of `O=C(O)C(Cl)(Cl)Cl` [Trichloroacetic Acid, trichloroacetic acid], the half-life [4] is given as “approximately 4 days”, the “% CR = percentage cross-reactivity based” value ([3]; competitive ELISA) is given as <<0.69% and the “IC50 = standard concentration which produces 50% B/B0” value ([3]; competitive ELISA) is given as >>2000 ng/ml. The “% B/B0” value ([3]; standard 31.25 ng/ml) was 91.2%, the “A450 (absorbance at 450 nm)” value ([3]; standard 31.25 ng/ml) was 1.372 and the “% B/B0” value ([3]; standard 62.5 ng/ml) was 92.5%. The “A450 (absorbance at 450 nm)” value ([3]; standard 62.5 ng/ml) was 1.391, the “% B/B0” value ([3]; standard 125 ng/ml) was 92.4% and the “A450 (absorbance at 450 nm)” value ([3]; standard 125 ng/ml) was 1.389. For the same compound, the “% B/B0” value ([3]; standard 250 ng/ml) was 87.2%, the “A450 (absorbance at 450 nm)” value ([3]; standard 250 ng/ml) was 1.312 and the “% B/B0” value ([3]; standard 500 ng/ml) was 85.4%. For the same compound, the “A450 (absorbance at 450 nm)” value ([3]; standard 500 ng/ml) was 1.284, the “% B/B0” value ([3]; standard 1000 ng/ml) was 81.8% and the “A450 (absorbance at 450 nm)” value ([3]; standard 1000 ng/ml) was 1.230. For the same compound, the “% B/B0” value ([3]; standard 2000 ng/ml) was 72.7% and the “A450 (absorbance at 450 nm)” value ([3]; standard 2000 ng/ml) was 1.094.
